Reference: paper PMC6327999, “Hydroxyl-substituted double Schiff-base condensed 4-piperidone/cyclohexanones as potential anticancer agents with biological evaluation” (Journal of Enzyme Inhibition and Medicinal Chemistry, 2019)

System: human gastric adenocarcinoma cells (SGC7901)
Test: Cytotoxicity, MTT assay, SGC7901
Format: cell-based
Conditions: Homo sapiens, SGC-7901; MTT, 24 hours
Description: (§1) Compounds 2a–d, 3a–e, 4a–e, 5a–d, and 6a–c were screened against human neoplastic cell lines such as human lung carcinoma cells (A549), human gastric adenocarcinoma cells (SGC7901), human cervical carcinoma cells (HeLa), human liver hepatocellular carcinoma cell line (Hepg2), human chronic myelogenous leukemia cell line (K562), human acute mononuclear granulocyte leukemia (THP-1), human normal heptical cell line (LO2) (Table 1) using modified MTT assay (3-(4,5-dimethyl-2-thiazolyl)-2,5-diphenyl-2-H-tetrazolium bromide, MTT, Dojindo Laboratories, Tokyo, Japan). All cell lines were maintained at 37 °C in a humidified 5% CO2 and 95% air atmosphere. The HePG2 cell lines were cultured in DMEM containing 10% fetal bovine serum. Other cell lines were grown in medium 1640 and supplemented with 10% fetal bovine serum. […] Controls were prepared with 0.1% DMSO (v/v) only. The cells were seeded in a 96-well plate in 200 µL medium per well at a density of 1 × 10^4 cells/well for 24 hours. The cells were treated with serial concentrations of compound and incubated for 24 hours. Cells with only culture media were used as control. After the media was removed, 20 µL of MTT (5 mg/mL) was added then the plates were incubated for 4 hours at 37 °C in cell culture incubator. The MTT containing media were removed and then 150 µL of DMSO was added to dissolve the dark-blue formazan crystals. The optical density (OD) was measured by a multi-well plate reader (TECAN, Männedorf, Switzerland) at 570 nm. The results are expressed as a decrease in the cell viability (%) in comparison to untreated controls. The concentration of each compound was examined in triplicate, and the IC50 values are expressed in Table 1. The concentrations of the compounds were 50, 20, 10, 5, 2.5, 1, 0.5, 0.1, 0.05 and 0.01 µg/mL. Doxorubicin (DOX) and Curcumin were used as positive controls. […] The concentrations of curcumin used were 100, 50, 25, 12.5, 6.25, 3.125, 1, 0.5 and 0.1 µg/mL.

Question: With O=C1/C(=C/c2cc(/N=C/c3cccc(O)c3O)ccc2F)CNC/C1=C\c1cc(/N=C/c2cccc(O)c2O)ccc1F [5a] as the compound, how does the IC50 read?
Answer: The IC50 was 1.6 ± 0.1 µM.

Question: With COc1cc(/C=C/C(=O)CC(=O)/C=C/c2ccc(O)c(OC)c2)ccc1O [Curcumin, reference compound] as the compound, how does the IC50 read?
Answer: The IC50 was 21.5 ± 0.3 µM.

Question: With CN1C/C(=C\c2cccc(/N=C/c3ccccc3O)c2)C(=O)/C(=C/c2cccc(/N=C/c3ccccc3O)c2)C1 [4a] as the compound, how does the IC50 read?
Answer: Its IC50 is 8.3 ± 0.8 µM.

Same assay, conditions: quotient of the IC50 values towards nonmalignant LO2 cells

Question: With O=C1/C(=C/c2cc(/N=C/c3cccc(O)c3O)ccc2F)CNC/C1=C\c1cc(/N=C/c2cccc(O)c2O)ccc1F [5a] as the compound, how does the “SGC7901 SI” value read?
Answer: Its value is 11.2.

Question: For COc1cc(/C=C/C(=O)CC(=O)/C=C/c2ccc(O)c(OC)c2)ccc1O [Curcumin, reference compound], which “SGC7901 SI” value is on record?
Answer: The value was 1.3.

Question: Which “SGC7901 SI” value does the source give for CN1C/C(=C\c2cccc(/N=C/c3ccccc3O)c2)C(=O)/C(=C/c2cccc(/N=C/c3ccccc3O)c2)C1 [4a] here?
Answer: Its value is 1.3.

System: human acute mononuclear granulocyte leukemia (THP-1)
Test: Cytotoxicity, MTT assay, THP-1
Format: cell-based
Conditions: Homo sapiens, THP-1; MTT, 24 hours
Description: as §1

Question: Which IC50 does the source give for O=C1/C(=C/c2cc(/N=C/c3cccc(O)c3O)ccc2F)CNC/C1=C\c1cc(/N=C/c2cccc(O)c2O)ccc1F [5a] here?
Answer: The IC50 was 1 ± 0.3 µM.

Question: How did the IC50 turn out when COc1cc(/C=C/C(=O)CC(=O)/C=C/c2ccc(O)c(OC)c2)ccc1O [Curcumin, reference compound] was run?
Answer: Its IC50 is 21.7 ± 0.4 µM.

Question: For CN1C/C(=C\c2cccc(/N=C/c3ccccc3O)c2)C(=O)/C(=C/c2cccc(/N=C/c3ccccc3O)c2)C1 [4a], which IC50 is on record?
Answer: The IC50 was 0.9 ± 0.1 µM.

Same assay, conditions: quotient of the IC50 values towards nonmalignant LO2 cells

Question: Which “THP-1 SI” value does the source give for O=C1/C(=C/c2cc(/N=C/c3cccc(O)c3O)ccc2F)CNC/C1=C\c1cc(/N=C/c2cccc(O)c2O)ccc1F [5a] here?
Answer: Its value is 18.5.

Question: For COc1cc(/C=C/C(=O)CC(=O)/C=C/c2ccc(O)c(OC)c2)ccc1O [Curcumin, reference compound], which “THP-1 SI” value is on record?
Answer: Its value is 1.3.

Question: How did the “THP-1 SI” value turn out when CN1C/C(=C\c2cccc(/N=C/c3ccccc3O)c2)C(=O)/C(=C/c2cccc(/N=C/c3ccccc3O)c2)C1 [4a] was run?
Answer: The value was 12.0.

System: human cervical carcinoma cells (HeLa)
Test: Cytotoxicity, MTT assay, HeLa
Format: cell-based
Conditions: Homo sapiens, HeLa; MTT, 24 hours
Description: as §1

Question: With O=C1/C(=C/c2cc(/N=C/c3cccc(O)c3O)ccc2F)CNC/C1=C\c1cc(/N=C/c2cccc(O)c2O)ccc1F [5a] as the compound, how does the IC50 read?
Answer: The IC50 was 1.1 ± 0.4 µM.

Question: With COc1cc(/C=C/C(=O)CC(=O)/C=C/c2ccc(O)c(OC)c2)ccc1O [Curcumin, reference compound] as the compound, how does the IC50 read?
Answer: The IC50 was 23.8 ± 1.3 µM.

Question: How did the IC50 turn out when CN1C/C(=C\c2cccc(/N=C/c3ccccc3O)c2)C(=O)/C(=C/c2cccc(/N=C/c3ccccc3O)c2)C1 [4a] was run?
Answer: Its IC50 is 6.3 ± 0.2 µM.

Same assay, conditions: quotient of the IC50 values towards nonmalignant LO2 cells

Question: How did the “HeLa SI” value turn out when O=C1/C(=C/c2cc(/N=C/c3cccc(O)c3O)ccc2F)CNC/C1=C\c1cc(/N=C/c2cccc(O)c2O)ccc1F [5a] was run?
Answer: Its value is 15.0.

Question: Which “HeLa SI” value does the source give for COc1cc(/C=C/C(=O)CC(=O)/C=C/c2ccc(O)c(OC)c2)ccc1O [Curcumin, reference compound] here?
Answer: The value was 1.2.

Question: CN1C/C(=C\c2cccc(/N=C/c3ccccc3O)c2)C(=O)/C(=C/c2cccc(/N=C/c3ccccc3O)c2)C1 [4a] was tested. Which “HeLa SI” value did it give?
Answer: The value was 1.7.

System: human lung carcinoma cells (A549)
Test: Cytotoxicity, MTT assay, A549
Format: cell-based
Conditions: Homo sapiens, A549; MTT, 24 hours
Description: as §1

Question: O=C1/C(=C/c2cc(/N=C/c3cccc(O)c3O)ccc2F)CNC/C1=C\c1cc(/N=C/c2cccc(O)c2O)ccc1F [5a] was tested. Which IC50 did it give?
Answer: The IC50 was 2.8 ± 0.2 µM.

Question: With COc1cc(/C=C/C(=O)CC(=O)/C=C/c2ccc(O)c(OC)c2)ccc1O [Curcumin, reference compound] as the compound, how does the IC50 read?
Answer: Its IC50 is 19.4 ± 0.2 µM.

Question: How did the IC50 turn out when CN1C/C(=C\c2cccc(/N=C/c3ccccc3O)c2)C(=O)/C(=C/c2cccc(/N=C/c3ccccc3O)c2)C1 [4a] was run?
Answer: The IC50 was 5.2 ± 0.4 µM.

Same assay, conditions: quotient of the IC50 values towards nonmalignant LO2 cells

Question: For O=C1/C(=C/c2cc(/N=C/c3cccc(O)c3O)ccc2F)CNC/C1=C\c1cc(/N=C/c2cccc(O)c2O)ccc1F [5a], which “A549 SI” value is on record?
Answer: Its value is 6.4.

Question: How did the “A549 SI” value turn out when COc1cc(/C=C/C(=O)CC(=O)/C=C/c2ccc(O)c(OC)c2)ccc1O [Curcumin, reference compound] was run?
Answer: The value was 1.4.

Question: How did the “A549 SI” value turn out when CN1C/C(=C\c2cccc(/N=C/c3ccccc3O)c2)C(=O)/C(=C/c2cccc(/N=C/c3ccccc3O)c2)C1 [4a] was run?
Answer: The value was 2.1.

System: human liver hepatocellular carcinoma cell line (Hepg2)
Test: Cytotoxicity, MTT assay, HePG2
Format: cell-based
Conditions: Homo sapiens, HepG2; MTT, 24 hours
Description: as §1, with “µg/mL.” for “µg/mL. Doxorubicin (DOX) and Curcumin were used as positive controls.”

Question: How did the IC50 turn out when O=C1/C(=C/c2cc(/N=C/c3cccc(O)c3O)ccc2F)CNC/C1=C\c1cc(/N=C/c2cccc(O)c2O)ccc1F [5a] was run?
Answer: Its IC50 is 1.8 ± 0.05 µM.

Question: How did the IC50 turn out when COc1cc(/C=C/C(=O)CC(=O)/C=C/c2ccc(O)c(OC)c2)ccc1O [Curcumin, reference compound] was run?
Answer: The IC50 was 16 ± 0.2 µM.

Question: For CN1C/C(=C\c2cccc(/N=C/c3ccccc3O)c2)C(=O)/C(=C/c2cccc(/N=C/c3ccccc3O)c2)C1 [4a], which IC50 is on record?
Answer: Its IC50 is 2.59 ± 0.1 µM.

Same assay, conditions: quotient of the IC50 values towards nonmalignant LO2 cells

Question: Which “HePG2 SI” value does the source give for O=C1/C(=C/c2cc(/N=C/c3cccc(O)c3O)ccc2F)CNC/C1=C\c1cc(/N=C/c2cccc(O)c2O)ccc1F [5a] here?
Answer: Its value is 9.7.

Question: How did the “HePG2 SI” value turn out when COc1cc(/C=C/C(=O)CC(=O)/C=C/c2ccc(O)c(OC)c2)ccc1O [Curcumin, reference compound] was run?
Answer: Its value is 1.7.

Question: Which “HePG2 SI” value does the source give for CN1C/C(=C\c2cccc(/N=C/c3ccccc3O)c2)C(=O)/C(=C/c2cccc(/N=C/c3ccccc3O)c2)C1 [4a] here?
Answer: Its value is 4.1.

System: human carcinoma cell lines A549, SGC7901, HePG2, HeLa, K562, THP-1
Test: Cytotoxicity, MTT assay, panel of human carcinoma cell lines (average / overall)
Format: cell-based
Conditions: Homo sapiens; average over the six carcinoma cell lines; read-out: Ave IC50
Description: as §1
The cytotoxicity activities against human carcinoma cell lines A549, SGC7901, HePG2, HeLa, K562, THP-1 and cytotoxicity toward LO2 cell lines were evaluated by MTT method. DOX and curcumin were used as positive control. The selectivity index (SI) is the quotient of the IC50 values towards nonmalignant LO2 cells. […] Especially for 4a–e, 5a–d, and 6a–c, this ratio can reach about 92%.

Question: Which IC50 does the source give for O=C1/C(=C/c2cc(/N=C/c3cccc(O)c3O)ccc2F)CNC/C1=C\c1cc(/N=C/c2cccc(O)c2O)ccc1F [5a] here?
Answer: Its IC50 is 1.6 µM.

Question: With COc1cc(/C=C/C(=O)CC(=O)/C=C/c2ccc(O)c(OC)c2)ccc1O [Curcumin, reference compound] as the compound, how does the IC50 read?
Answer: Its IC50 is 20.8 µM.

Question: How did the IC50 turn out when CN1C/C(=C\c2cccc(/N=C/c3ccccc3O)c2)C(=O)/C(=C/c2cccc(/N=C/c3ccccc3O)c2)C1 [4a] was run?
Answer: The IC50 was 4.3 µM.

Same assay, conditions: average over the six carcinoma cell lines

Question: Which “Ave SI” value does the source give for O=C1/C(=C/c2cc(/N=C/c3cccc(O)c3O)ccc2F)CNC/C1=C\c1cc(/N=C/c2cccc(O)c2O)ccc1F [5a] here?
Answer: Its value is 12.1.

Question: Which “Ave SI” value does the source give for COc1cc(/C=C/C(=O)CC(=O)/C=C/c2ccc(O)c(OC)c2)ccc1O [Curcumin, reference compound] here?
Answer: Its value is 1.4.

Question: Which “Ave SI” value does the source give for CN1C/C(=C\c2cccc(/N=C/c3ccccc3O)c2)C(=O)/C(=C/c2cccc(/N=C/c3ccccc3O)c2)C1 [4a] here?
Answer: The value was 4.2.

System: human chronic myelogenous leukemia cell line (K562)
Test: Cytotoxicity, MTT assay, K562
Format: cell-based
Conditions: Homo sapiens, K562; MTT, 24 hours
Description: as §1

Question: With O=C1/C(=C/c2cc(/N=C/c3cccc(O)c3O)ccc2F)CNC/C1=C\c1cc(/N=C/c2cccc(O)c2O)ccc1F [5a] as the compound, how does the IC50 read?
Answer: The IC50 was 1.5 ± 0.1 µM.

Question: Which IC50 does the source give for COc1cc(/C=C/C(=O)CC(=O)/C=C/c2ccc(O)c(OC)c2)ccc1O [Curcumin, reference compound] here?
Answer: The IC50 was 22.1 ± 0.8 µM.

Question: Which IC50 does the source give for CN1C/C(=C\c2cccc(/N=C/c3ccccc3O)c2)C(=O)/C(=C/c2cccc(/N=C/c3ccccc3O)c2)C1 [4a] here?
Answer: Its IC50 is 2.8 ± 0.1 µM.

Same assay, conditions: quotient of the IC50 values towards nonmalignant LO2 cells

Question: O=C1/C(=C/c2cc(/N=C/c3cccc(O)c3O)ccc2F)CNC/C1=C\c1cc(/N=C/c2cccc(O)c2O)ccc1F [5a] was tested. Which “K562 SI” value did it give?
Answer: The value was 11.7.

Question: COc1cc(/C=C/C(=O)CC(=O)/C=C/c2ccc(O)c(OC)c2)ccc1O [Curcumin, reference compound] was tested. Which “K562 SI” value did it give?
Answer: Its value is 1.2.

Question: For CN1C/C(=C\c2cccc(/N=C/c3ccccc3O)c2)C(=O)/C(=C/c2cccc(/N=C/c3ccccc3O)c2)C1 [4a], which “K562 SI” value is on record?
Answer: Its value is 3.8.

System: human normal heptical cell line (LO2)
Test: Cytotoxicity, MTT assay, non-malignant LO2
Format: cell-based
Conditions: 24 hours, non-malignant cells
Description: as §1

Question: How did the IC50 turn out when O=C1/C(=C/c2cc(/N=C/c3cccc(O)c3O)ccc2F)CNC/C1=C\c1cc(/N=C/c2cccc(O)c2O)ccc1F [5a] was run?
Answer: Its IC50 is 17.6 ± 1 µM.

Question: Which IC50 does the source give for COc1cc(/C=C/C(=O)CC(=O)/C=C/c2ccc(O)c(OC)c2)ccc1O [Curcumin, reference compound] here?
Answer: Its IC50 is 27.5 ± 0.4 µM.

Question: With CN1C/C(=C\c2cccc(/N=C/c3ccccc3O)c2)C(=O)/C(=C/c2cccc(/N=C/c3ccccc3O)c2)C1 [4a] as the compound, how does the IC50 read?
Answer: The IC50 was 10.6 ± 0.1 µM.
